The test system of this assay is SARS-CoV-2 XBB 1.16 variant. Set-up: species or system K18-hACE2 mice. The settings on record: mouse; for Decrease of lung viral load (viral RNA copies) compared to the vehicle group: in vivo.

Molecules are shown by their SMILES. Like-named read-outs stand apart in the source and are kept apart here.

For the compound `O=C(NCc1ccccc1)C(=O)[C@H](C[C@@H]1CCCNC1=O)NC(=O)[C@H](Cc1ccc(F)cc1)NC(=O)c1cc2ccccc2o1` [14a, N-((S)-1-(((S)-4-(benzylamino)-3,4-dioxo-1-((S)-2-oxopiperidin-3-yl)butan-2-yl)amino)-3-(4-fluorophenyl)-1-oxopropan-2-yl)benzofuran-2-carboxamide], the “Effect against SARS-CoV-2 XBB 1.16 variant in vivo (in words)” value is recorded as “potent effect”. For the same compound, the “Decrease of lung viral load (viral RNA copies) compared to the vehicle group” value (10 mg/kg) came to 2.0 log10 units. Further, the “Decrease of lung viral load (viral RNA copies) compared to the vehicle group” value (20 mg/kg) is on record as 2.6 log10 units.

`O=C(NCc1ccccc1)C(=O)[C@H](C[C@@H]1CCCNC1=O)NC(=O)[C@H](CC1CCCCC1)NC(=O)c1cc2ccccc2o1` [14b, N-((S)-1-(((S)-4-(benzylamino)-3,4-dioxo-1-((S)-2-oxopiperidin-3-yl)butan-2-yl)amino)-3-cyclohexyl-1-oxopropan-2-yl)benzofuran-2-carboxamide]: the “Effect against SARS-CoV-2 XBB 1.16 variant in vivo (in words)” value is given as “potent effect”.

These data come from PMC10914734 (Signal Transduction and Targeted Therapy, 2024).
